# Test results from patent US10160747B2, “Compounds and methods for kinase modulation, and indications therefor” (Plexxikon Inc., priority 2016, dated 2018).
# Legend:
# [1] = target: T1, c-KIT (Homo sapiens, UniProt P10721); assay: c-KIT recombinant enzyme kinase assay (AlphaScreen); type: biochemical; settings: 100 ATP, 8 pt
# T1 construct: purchased Millipore 14-559K
# Procedure: (§1) In order to determine the effect of compounds on FLT3 catalytic activity, kinase assays using recombinant enzymes and AlphaScreen® technology have been established. The catalytic activity of c-kit activity was also measured to determine selectivity of the compounds. When the kinases are catalytically active, they phosphorylate a biotinylated peptide substrate on tyrosine residues. Using AlphaScreen® technology, the ability of the compounds to affect the catalytic activity of the kinases can be measured quantitatively. The peptide substrate is immobilized by the AlphaScreen® Streptavidin Donor beads and, upon phosphorylation by a tyrosine kinase, can bind to AlphaScreen® Anti-Phosphotyrosine (PY20) Acceptor beads. Upon excitation of these beads with laser light at 680 nm, singlet oxygen is produced. This singlet oxygen is rapidly quenched, unless the AlphaScreen® Anti-Phosphotyrosine (PY20) Acceptor beads are in close proximity, in which case a proximity signal can be measured at 580 nm. In the presence of catalytic activity, there is a very strong proximity signal. Selective kinase inhibitors affect a decrease in this proximity signal through a decrease in tyrosine phosphorylation of the peptide substrate.
# (§2) The assay was performed as summarized below.
# (§3) Poly (Glu4-Tyr) Peptide, biotin conjugate [Biotin-GG(EEEEY)10EE] (SEQ ID NO: 4)
# (§4) Final concentration=30 nM
# (§5) Adenosine Triphosphate (ATP)
# (§6) Final concentration for IC50 determination=10 μM (FLT3-D835Y or FLT3-ITD) or 100 μM (c-KIT)
# (§7) AlphaScreen® Phosphotyrosine (PY20) Assay Kit
# (§8) Final concentration=10 μg/mL
# (§9) Dilute compounds in DMSO to 20× final concentration.
# (§10) Add 1 μL of compound to each well of 384 well reaction plate (Perkin Elmer #6005359).
# (§11) Mix enzyme and Poly (Glu4-Tyr) Peptide substrate at 1.33× final concentration in assay buffer.
# (§12) Mix ATP at 5× final concentration in assay buffer.
# (§13) Add 15 μL enzyme/substrate mixture to the reaction plate.
# (§14) Add 4 μL of ATP to the reaction plate.
# (§15) Mix Streptavidin Donor beads at 6× final concentration in Stop/Detection buffer.
# (§16) Add 5 μL Streptavidin Donor beads to the reaction plate. Centrifuge 1 minute, shake to mix, and incubate at room temperature for 20 minutes.
# (§17) Mix Anti-Phosphotyrosine (PY20) Acceptor beads at 6× final concentration in Stop/Detection buffer.
# (§18) Add 5 μL Anti-Phosphotyrosine (PY20) beads to the reaction plate.
# (§19) Centrifuge 1 minute, shake to mix, and incubate at room temperature for 60 minutes.
# (§20) Read plate on Wallac EnVision™ 2103 Multilabel Reader.
# [2] = target: T2, FLT3-ITD (Homo sapiens, UniProt P36888); assay: FLT3-ITD recombinant enzyme kinase assay (AlphaScreen); type: biochemical; settings: 8 pt; read-out: FLT3_ITD 8 pt: IC50
# T2 sequence (P36888 1-993): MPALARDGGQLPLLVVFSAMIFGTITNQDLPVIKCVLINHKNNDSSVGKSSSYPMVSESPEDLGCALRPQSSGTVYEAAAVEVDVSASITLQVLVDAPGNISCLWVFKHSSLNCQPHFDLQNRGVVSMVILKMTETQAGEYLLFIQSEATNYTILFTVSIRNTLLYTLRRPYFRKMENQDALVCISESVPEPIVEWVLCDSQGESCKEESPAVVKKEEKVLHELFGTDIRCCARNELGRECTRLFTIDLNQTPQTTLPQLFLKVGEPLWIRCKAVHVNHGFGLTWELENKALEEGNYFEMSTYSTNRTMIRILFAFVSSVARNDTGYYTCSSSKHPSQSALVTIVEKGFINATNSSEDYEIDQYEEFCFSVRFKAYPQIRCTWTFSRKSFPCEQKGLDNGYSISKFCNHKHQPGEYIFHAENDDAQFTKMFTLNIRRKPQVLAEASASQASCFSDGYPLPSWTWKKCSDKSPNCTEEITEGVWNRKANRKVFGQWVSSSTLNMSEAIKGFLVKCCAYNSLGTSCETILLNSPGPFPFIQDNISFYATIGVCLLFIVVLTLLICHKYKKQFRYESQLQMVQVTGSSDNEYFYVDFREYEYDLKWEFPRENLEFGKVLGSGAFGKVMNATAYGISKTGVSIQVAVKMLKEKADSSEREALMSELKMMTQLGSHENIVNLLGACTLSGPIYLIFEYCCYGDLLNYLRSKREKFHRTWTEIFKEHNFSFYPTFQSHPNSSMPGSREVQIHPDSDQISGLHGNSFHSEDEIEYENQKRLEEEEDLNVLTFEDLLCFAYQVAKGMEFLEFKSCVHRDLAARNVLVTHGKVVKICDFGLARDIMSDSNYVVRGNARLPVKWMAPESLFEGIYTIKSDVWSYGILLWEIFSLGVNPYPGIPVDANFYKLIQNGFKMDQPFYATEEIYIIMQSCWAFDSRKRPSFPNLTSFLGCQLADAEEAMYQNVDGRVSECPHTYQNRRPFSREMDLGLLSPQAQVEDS
# Procedure: as §1, §2, §3, §4, §5, §6, §7, §8, §9, §10, §11, §12, §13, §14, §15, §16, §17, §18, §19, §20
# T1 sequence (P10721 26-976): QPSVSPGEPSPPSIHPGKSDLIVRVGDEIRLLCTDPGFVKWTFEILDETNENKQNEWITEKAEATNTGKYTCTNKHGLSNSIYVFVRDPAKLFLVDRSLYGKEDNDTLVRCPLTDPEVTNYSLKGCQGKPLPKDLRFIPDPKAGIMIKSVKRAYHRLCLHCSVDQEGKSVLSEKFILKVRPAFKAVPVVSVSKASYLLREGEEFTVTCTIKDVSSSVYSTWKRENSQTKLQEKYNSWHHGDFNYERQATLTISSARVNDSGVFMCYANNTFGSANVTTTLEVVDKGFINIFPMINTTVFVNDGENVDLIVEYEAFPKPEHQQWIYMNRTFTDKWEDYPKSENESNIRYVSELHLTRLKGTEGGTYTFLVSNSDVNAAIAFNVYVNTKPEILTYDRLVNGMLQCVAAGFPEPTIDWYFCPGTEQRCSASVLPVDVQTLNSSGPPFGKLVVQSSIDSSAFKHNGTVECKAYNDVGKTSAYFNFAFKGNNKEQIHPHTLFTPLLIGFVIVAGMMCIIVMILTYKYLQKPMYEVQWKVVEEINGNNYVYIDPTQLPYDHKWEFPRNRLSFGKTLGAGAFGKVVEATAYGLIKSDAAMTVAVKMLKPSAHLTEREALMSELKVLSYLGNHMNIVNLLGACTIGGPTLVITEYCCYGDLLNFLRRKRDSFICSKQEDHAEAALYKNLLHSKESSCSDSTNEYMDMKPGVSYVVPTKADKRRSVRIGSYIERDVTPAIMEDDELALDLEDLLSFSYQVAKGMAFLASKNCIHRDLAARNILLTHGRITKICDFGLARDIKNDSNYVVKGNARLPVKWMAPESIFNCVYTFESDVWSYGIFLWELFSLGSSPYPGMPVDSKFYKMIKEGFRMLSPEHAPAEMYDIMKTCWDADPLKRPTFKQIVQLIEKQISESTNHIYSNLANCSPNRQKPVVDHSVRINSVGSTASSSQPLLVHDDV
Structure (SMILES),IC50 [1] [µM],IC50 [2] [µM]
"Cn1cc(Nc2ncc(-c3ccc(CC(=O)Nc4ccnc(C5CC5)c4)cc3)cn2)cn1 [Compound P-0097, N-(2-cyclopropyl-4-pyridyl)-2-[4-[2-[(1-methylpyrazol-4-yl)amino]pyrimidin-5-yl]phenyl]acetamide]",0.0001 to 10,0.0001 to 10
"Cn1cc(Nc2ncc(-c3ccc(CC(=O)Nc4ccc(C(C)(C)C#N)nc4)cc3)cn2)cn1 [Compound P-0146, N-[6-(1-cyano-1-methyl-ethyl)-3-pyridyl]-2-[4-[2-[(1-methylpyrazol-4-yl)amino]pyrimidin-5-yl]phenyl]acetamide]",0.0001 to 10,0.0001 to 10
"Cn1cc(Nc2ncc(-c3ccc(CC(=O)NCc4cccnc4)cc3)cn2)cn1 [Compound P-0132, 2-[4-[2-[(1-methylpyrazol-4-yl)amino]pyrimidin-5-yl]phenyl]-N-(3-pyridylmethyl)acetamide]",0.0001 to 10,0.0001 to 10
"O=C(Cc1ccc(-c2cnc3[nH]c(-c4ccc(N5CCOCC5)nc4)cc3c2)c(F)c1)Nc1cncc(C(F)(F)F)c1 [Compound P-0198, 2-[3-fluoro-4-[2-(6-morpholino-3-pyridyl)-1H-pyrrolo[2,3-b]pyridin-5-yl]phenyl]-N-[5-(trifluoromethyl)-3-pyridyl]acetamide]",0.0001 to 10,0.0001 to 10
"O=C(Cc1ccc(-c2cnc3[nH]c(-c4ccc(N5CCOCC5)nc4)cc3c2)cn1)Nc1ccnc(C(F)(F)F)c1 [Compound P-0183, 2-[5-[2-(6-morpholino-3-pyridyl)-1H-pyrrolo[2,3-b]pyridin-5-yl]-2-pyridyl]-N-[2-(trifluoromethyl)-4-pyridyl]acetamide]",0.0001 to 10,0.0001 to 10
"O=C(Cc1ccc(-c2cnc3[nH]c(-c4cnn(C(F)F)c4)cc3c2)c(F)c1)Nc1cncc(C(F)(F)F)c1 [Compound P-0197, 2-[4-[2-[1-(difluoromethyl)pyrazol-4-yl]-1H-pyrrolo[2,3-b]pyridin-5-yl]-3-fluoro-phenyl]-N-[5-(trifluoromethyl)-3-pyridyl]acetamide]",,0.0001 to 10
"O=C(Cc1ccc(-c2cnc3[nH]c(-c4ccc(N5CCOCC5)nc4)cc3c2)c(F)c1)Nc1cc(C(F)(F)F)ccn1 [Compound P-0192, 2-[3-fluoro-4-[2-(6-morpholino-3-pyridyl)-1H-pyrrolo[2,3-b]pyridin-5-yl]phenyl]-N-[4-(trifluoromethyl)-2-pyridyl]acetamide]",,0.0001 to 10
"Cn1cc(Nc2ncc(-c3ccc(CC(=O)Nc4cc(Cl)c(C5CC5)cn4)cc3)cn2)cn1 [Compound P-0164, N-(4-chloro-5-cyclopropyl-2-pyridyl)-2-[4-[2-[(1-methylpyrazol-4-yl)amino]pyrimidin-5-yl]phenyl]acetamide]",,0.0001 to 10
"O=C(Cc1ccc(-c2cnc3[nH]c(-c4ccccc4)cc3c2)cc1F)Nc1ccnc(C(F)(F)F)c1 [Compound P-0004, 2-[2-fluoro-4-(2-phenyl-1H-pyrrolo[2,3-b]pyridin-5-yl)phenyl]-N-[2-(trifluoromethyl)-4-pyridyl]acetamide]",,0.0001 to 10
"O=C(Cc1ccc(-c2cnc3[nH]c(-c4ccccc4)cc3c2)c(F)c1)Nc1cccc(C(F)(F)F)c1 [Compound P-0003, 2-[3-fluoro-4-(2-phenyl-1H-pyrrolo[2,3-b]pyridin-5-yl)phenyl]-N-[3-(trifluoromethyl)phenyl]acetamide]",,0.0001 to 10
"COc1ccc(-c2cc3cc(-c4ccc(CC(=O)Nc5cc(C(F)(F)F)ccn5)cc4F)cnc3[nH]2)cn1 [Compound P-0191, 2-[3-fluoro-4-[2-(6-methoxy-3-pyridyl)-1H-pyrrolo[2,3-b]pyridin-5-yl]phenyl]-N-[4-(trifluoromethyl)-2-pyridyl]acetamide]",,0.0001 to 10
"Cc1cc(-c2cnc3[nH]c(-c4ccccc4)cc3c2)ccc1CC(=O)Nc1cccc(C(F)(F)F)c1 [Compound P-0001, 2-[2-methyl-4-(2-phenyl-1H-pyrrolo[2,3-b]pyridin-5-yl)phenyl]-N-[3-(trifluoromethyl)phenyl]acetamide]",,0.0001 to 10

# Further lines, results first:
IC50 [1] [µM],IC50 [2] [µM],Structure (SMILES)
0.0001 to 10,0.0001 to 10,"Cn1cc(Nc2ncc(-c3ccc(CC(=O)Nc4ccnc(C(F)(F)F)n4)cc3)cn2)cn1 [Compound P-0137, 2-[4-[2-[(1-methylpyrazol-4-yl)amino]pyrimidin-5-yl]phenyl]-N-[2-(trifluoromethyl)pyrimidin-4-yl]acetamide]"
0.0001 to 10,0.0001 to 10,"Cn1cc(Nc2ncc(-c3ccc(CC(=O)Nc4ccc(C(C)(C)C#N)nc4)c(F)c3)cn2)cn1 [Compound P-0108, N-[6-(1-cyano-1-methyl-ethyl)-3-pyridyl]-2-[2-fluoro-4-[2-[(1-methylpyrazol-4-yl)amino]pyrimidin-5-yl]phenyl]acetamide]"
0.0001 to 10,0.0001 to 10,"COCCn1cc(Nc2ncc(-c3ccc(CC(=O)Nc4cnc(C)c(C(F)(F)F)c4)cc3)cn2)cn1 [Compound P-0179, 2-[4-[2-[[1-(2-methoxyethyl)pyrazol-4-yl]amino]pyrimidin-5-yl]phenyl]-N-[6-methyl-5-(trifluoromethyl)-3-pyridyl]acetamide]"
0.0001 to 10,0.0001 to 10,"Cn1cc(Nc2ncc(-c3ccc(CC(=O)Nc4cncc(C(F)(F)F)c4)cc3)cn2)cn1 [Compound P-0136, 2-[4-[2-[(1-methylpyrazol-4-yl)amino]pyrimidin-5-yl]phenyl]-N-[5-(trifluoromethyl)-3-pyridyl]acetamide]"
0.0001 to 10,0.0001 to 10,"CCn1cc(Nc2ncc(-c3ccc(CC(=O)Nc4cnc(Cl)c(C(F)(F)F)c4)cc3)cn2)cn1 [Compound P-0165, N-[6-chloro-5-(trifluoromethyl)-3-pyridyl]-2-[4-[2-[(1-ethylpyrazol-4-yl)amino]pyrimidin-5-yl]phenyl]acetamide]"
0.0001 to 10,0.0001 to 10,"Cc1ncc(NC(=O)Cc2ccc(-c3cnc(Nc4cn(C)cn4)nc3)cc2F)cc1C(F)(F)F [Compound P-0099, 2-[2-fluoro-4-[2-[(1-methylimidazol-4-yl)amino]pyrimidin-5-yl]phenyl]-N-[6-methyl-5-(trifluoromethyl)-3-pyridyl]acetamide]"
0.0001 to 10,0.0001 to 10,"CCn1cc(Nc2ncc(-c3ccc(CC(=O)Nc4cncc(C(F)(F)F)c4)cc3)cn2)cn1 [Compound P-0166, 2-[4-[2-[(1-ethylpyrazol-4-yl)amino]pyrimidin-5-yl]phenyl]-N-[5-(trifluoromethyl)-3-pyridyl]acetamide]"
0.0001 to 10,0.0001 to 10,"COc1ncc(NC(=O)Cc2cc(F)c(-c3cnc4[nH]nc(C)c4c3)cc2F)cc1C(F)(F)F [Compound P-0176, 2-[2,5-difluoro-4-(3-methyl-1H-pyrazolo[3,4-b]pyridin-5-yl)phenyl]-N-[6-methoxy-5-(trifluoromethyl)-3-pyridyl]acetamide]"
,0.0001 to 10,"Cc1ncc(NC(=O)Cc2ccc(-c3cnc4[nH]nc(C)c4c3)c(F)c2)cc1C(F)(F)F [Compound P-0172, 2-[3-fluoro-4-(3-methyl-1H-pyrazolo[3,4-b]pyridin-5-yl)phenyl]-N-[6-methyl-5-(trifluoromethyl)-3-pyridyl]acetamide]"
